Measurements published in US20080234464A1, “Compound Having Amino Acid Residue or Peptide Residue and Process for Producing the Same” (priority 2005, published 2008).

Assays:
Format in all cases: cell-based
[1] = tested on: PC3 (human lung adenocarcinoma) cells; test: Nucleic acid transfection experiment (siRNA level), FITC-labeled siRNA, flow cytometer; conditions: compounds (1-A)/(1-B): 0.6 mM), 0.5 μg FITC-labeled siRNA, 2 hours
Protocol: (§1) In order to attain 50 to 60% confluence at the time of siRNA transfection, PC3 ([…]) cells, UMUC3 (human bladder carcinoma) cells and T24 (human urinary bladder carcinoma) cells were separately seeded in a 6-well plate on the day before the transfection and cultured at 37° C. in a 5% CO2 incubator.
(§2) A 100-μl quantity of Opti-MEM was added to each of several 1.5-ml tubes, and two samples each of 1, 3 and 10 μl of PBS solution containing the carriers for nucleic acid transfection of Reference Example 3 in one of the two samples and Reference Example 8 in the other sample (each carrier for nucleic acid transfection content had been adjusted so that compound (1L-A) was at 0.067 mM) were separately added to each tube and then left to stand at room temperature for about 10 minutes. Further, 0.5 μg of FITC-labeled siRNA (fluorescent labeled siRNA ((sense)Fluo-[…]/(antisense)[…]: product of Proligo) was added to each tube and then left to stand for 15 minutes, forming a complex of siRNA and the carrier for gene transfection.
(§3) Separately, 50 μl of Opti-MEM was added to each of several 1.5-ml tubes, and two samples each of 1, 3 and 10 μl of PBS solution containing 0.6 mM compound (1-A) in one of the two samples and 0.6 mM compound (1-B) in the other sample were separately added to each tube, mixed by tapping, and then left to stand at room temperature for 5 minutes. Further, 0.5 μg of FITC-labeled siRNA (same as above) was added to each tube and then left to stand for 30 minutes, forming a complex of the siRNA and carrier for gene transfection.
(§4) After a while, the prepared solutions containing the siRNA and carrier for gene transfection were separately added to the wells in which the cells were present at 50 to 60% confluence. The plates were slowly pitched and rolled, and culture was then performed at 37° C. under a condition of 5% CO2 for 2 hours. After the culture was completed, FITC-positive cells were counted by a flow cytometer to calculate the siRNA transfection efficiency (%) in cells. Further, for comparison with conventional carriers for nucleic acid transfection (Lipofectamine 2000, TransIt-TKO, Metafectene, and oligofectamine), siRNA transfection efficiency (%) in cells was calculated in the same manner as above using the protocol recommended by the respective manufacture and corresponding to a transfection nucleic acid amount of 0.5 μg.

[2] = tested on: UMUC3 (human bladder carcinoma) cells; test: as above; conditions: compounds (1-A)/(1-B): 0.6 mM), 0.5 μg FITC-labeled siRNA, 2 hours
Protocol: as §1, §2, §3, §4

[3] = tested on: T24 (human urinary bladder carcinoma) cells; test: as above; conditions: compounds (1-A)/(1-B): 0.6 mM), 0.5 μg FITC-labeled siRNA, 2 hours
Protocol: as §1, §2, §3, §4

[4] = tested on: PC3 (human lung adenocarcinoma) cells; test: Nucleic acid transfection experiment (oligo DNA level), FITC-labeled single-strand DNA, FACS; conditions: for DNA transfection efficiency in cells (%): PC3, 0.3 μg FITC-labeled single-strand DNA (20 mer), 4 hours at 37° C.
Protocol: (§5) PC3 ([…]) cells, UMUC3 (human bladder carcinoma) cells, T24 (human urinary bladder carcinoma) cells and NIH-3T3 (mouse embryonic fibroblast) cells were separately precultured in a 12-well plate, either in a 10% FBS-containing RPMI medium (PC3 cells, NIH-3T3 cells, and T24 cells) or in a 10% FBS-containing DMEM medium (UMUC cells), to attain a 60 to 70% confluent state.
(§6) A 1 μl quantity of each of the compounds shown in Table 1 [solutions containing compound (1-A) or (1-B) at 0.37, 0.13 and 0.04 mM] was added to each of a corresponding number of containers each holding 50 μl of non-serum medium, mixed by tapping, and incubated at room temperature for 5 minutes. Subsequently, 0.3 μg of FITC-labeled single-strand DNA (20 mer) (FITC-[…]: product of Proligo) was added to each of the above-prepared media containing a carrier for nucleic acid transfection, mixed by tapping, and incubated at 37° C. for 30 minutes (mixed by tapping every 10 minutes). The obtained mixtures were separately added to the above wells in which the cell culture had been completed, leveled by lightly tapping, and then incubated at 37° C. for 4 hours. The cells were collected, and FITC-positive cells were counted by FACS to calculate DNA transfection efficiency (%) in cells. Further, for the comparison with conventional carriers for nucleic acid transfection (Lipofectamine 2000, TransIt-TKO, and Fugene 6), siRNA transfection efficiency (%) in PC3 cells was calculated in the same manner as above using the protocol recommended by the respective manufacturer and corresponding to a transfection nucleic acid amount of 0.3 μg.

[5] = tested on: UMUC3 (human bladder carcinoma) cells; test: as above; conditions: 0.3 μg FITC-labeled single-strand DNA (20 mer), 4 hours at 37° C.
Protocol: as §5, §6

[6] = tested on: T24 (human urinary bladder carcinoma) cells; test: as above; conditions: 0.3 μg FITC-labeled single-strand DNA (20 mer), 4 hours at 37° C.
Protocol: as §5, §6

[7] = tested on: NIH-3T3 (mouse embryonic fibroblast) cells; test: as above; conditions: 0.3 μg FITC-labeled single-strand DNA (20 mer), 4 hours at 37° C.
Protocol: as §5, §6

[8] = amount 1 μl of carrier solution (Reference Examples: 0.067 mM as compound (1L-A)
[9] = amount 3 μl of carrier solution (Reference Examples: 0.067 mM as compound (1L-A)
[10] = amount 10 μl of carrier solution (Reference Examples: 0.067 mM as compound (1L-A)
[11] = 1 μl of 0.04 mM compound solution
[12] = 1 μl of 0.13 mM compound solution
[13] = 1 μl of 0.37 mM compound solution

Which “siRNA transfection efficiency in cells (%)” value [1, 8] does the source give for `N=C(N)NCCCC(N)C(=O)CC(CNC(=N)N)C(=O)NC(CCCNC(=N)N)C(=O)NCCCCC(N)C(=O)NC(CCCCNC(=O)C(CCCNC(=N)N)NC(=O)C(CNC(=N)N)CC(=O)C(N)CCCNC(=N)N)C(=O)NC(CCCCNC(=O)C(CCCNC(=N)N)NC(=O)C(CNC(=N)N)CC(=O)C(N)CCCNC(=N)N)C(=O)NC(CCCCNC(=O)C(CCCNC(=N)N)NC(=O)C(CNC(=N)N)CC(=O)C(N)CCCNC(=N)N)C(=O)NC(CCCCNC(=O)C(CCCNC(=N)N)NC(=O)C(CNC(=N)N)CC(=O)C(N)CCCNC(=N)N)C(=O)NCCCCCC(=O)NCCCCCC(N)=O` (stereo not shown) [(1-B)] here?
Its value is 3.5%.

What about the “siRNA transfection efficiency in cells (%)” value [1, 9] of the same compound?
Its value is 10.1%.

And the “siRNA transfection efficiency in cells (%)” value [1, 10]?
The value was 42.0%.

What about the “siRNA transfection efficiency in cells (%)” value [2, 8] of the same compound?
Its value is 5.3%.

What about the “siRNA transfection efficiency in cells (%)” value [2, 9] of the same compound?
Its value is 4.4%.

What about the “siRNA transfection efficiency in cells (%)” value [2, 10] of the same compound?
The value was 7.0%.

And the “siRNA transfection efficiency in cells (%)” value [3, 8]?
Its value is 11.6%.

And the “siRNA transfection efficiency in cells (%)” value [3, 9]?
The value was 19.2%.

What about the “siRNA transfection efficiency in cells (%)” value [3, 10] of the same compound?
The value was 60.7%.

What about the “DNA transfection efficiency in cells (%)” value [4, 11] of the same compound?
The value was 65.0%.

And the “DNA transfection efficiency in cells (%)” value [4, 12]?
Its value is 76.1%.

What about the “DNA transfection efficiency in cells (%)” value [4, 13] of the same compound?
The value was 83.8%.

And the “suitability for introducing nucleic acids into cells (conclusion from Table 1)” value ([4]; conclusion over PC3, UMUC3, T24 and NIH-3T3 cells)?
The value was “excellently suitable for introducing nucleic acids into cells”.

And the “DNA transfection efficiency in cells (%)” value [5, 11]?
Its value is 61.7%.

What about the “DNA transfection efficiency in cells (%)” value [5, 12] of the same compound?
The value was 77.2%.

What about the “DNA transfection efficiency in cells (%)” value [5, 13] of the same compound?
Its value is 61.5%.

And the “DNA transfection efficiency in cells (%)” value [6, 11]?
Its value is 13.4%.

And the “DNA transfection efficiency in cells (%)” value [6, 12]?
Its value is 26.0%.

And the “DNA transfection efficiency in cells (%)” value [6, 13]?
Its value is 31.4%.

And the “DNA transfection efficiency in cells (%)” value [7, 11]?
Its value is 84.0%.

What about the “DNA transfection efficiency in cells (%)” value [7, 12] of the same compound?
Its value is 93.2%.

What about the “DNA transfection efficiency in cells (%)” value [7, 13] of the same compound?
The value was 87.0%.
